Test results reported in patent US6436416B1, “Cosmetic skin conditioning compositions containing high performing retinyl esters” (Unilever Home & Personal Care USA, division of Conopco, Inc., priority 2000, dated 2002).

Key:
Procollagen I = Procollagen I assay; assay type: cell-based, human; details: fibroblasts, control at 100%
Text: Collagen is a predominant skin protein. Its synthesis decreases with aging or photodamage. The degradation or destruction of collagen […] the tensile strength of the skin causing wrinkles and laxity. Many studies involving human subjects have shown that collagen type I is decreased with increasing severity of photodamage (See Kligman, A., JAMA, (1969), 210, pp. 2377-2380; Lavker, R., J. Inv Derm., (1979), 73, 79-66; Smith J. et al., J. lnv. Derm., (1962), 39, pp. 347-350; and Shuster, S. et al., Br. J. Dermatol., (1975), 93, pp. 639-643); and some correlation in the histology of wrinkles and reduction in collagen levels in the sun-exposed skin has been reported. See Chen, S.; Kiss, I., J. Inv. Derm., (1992), 98. pp. 248-254. Voorhees and colleagues have supported these findings by showing the restoration of collagen type I in photo-damaged human skin by a topical treatment with tretinoin. See Christopher, E., et al., The New Eng. Jou. of Medicine (1993), 329, pp. 530-535. Procollagen I is a precursor of collagen. Increased production of procollagen I in response to a test compound application is a marker of an increased collagen level.
Seed passage 3 (P3) fibroblasts in 6-well tissue culture treated dishes at a density of ˜10,000 cells/well.
Culture cells until ˜70% confluent in high glucose Dulbecco's Modified Eagles Medium (DMEM).
When cells are ˜70% confluent, replace with fresh medium, dose with actives and continue culturing until cells are 100% confluent.
Remove media and store at 4° C.
Dilute 20 μl conditioned (treated) media in 200 μl unconditioned DMEM.
Soak nitrocellulose membrane and 3 sheets of filter paper in 1×TBS (tris buffered saline, pH=7.3).
Set up Bio-Rad slot blot apparatus with filter paper on bottom, nitrocellulose membrane on top. Add 100 μl TBS/well. Vacuum dry.
Remove membrane from apparatus and place in blocking solution (5% milk powder in phosphate buffered saline (PBS)) for 1 hr at room temperature or overnight at 4° C.
Primary antibody-Remove membrane from blocking solution and incubate for 1.5 hours at room temperature or overnight at 4° C. with 1.5 ml rat anti-human procollagen amino-terminal antibody (Chemicon MAB1912) 1:100 in TBS with 0.1% bovine serum albumin (BSA).
Remove membrane, was 3×(10 minutes/wash) in TBS/0.1% tween 20.
Secondary antibody-incubate for 1 hour at room temperature or overnight at 4° C. in 2 ml 1:1000 biotinylated anti-rat peroxidase conjugated antibody (Vector Labs).
Remove membrane from secondary antibody and was 3×(10 minutes/wash) in TBS/0.1% tween 20.
Preincubate 3 ml PBS with 30 μl each of solutions A and B from Vectastain kit for 30 minutes. […]
Scan using a laser densitometer and quantified as % over control (with control at 100%).

[1] = system: CRABP-2 expression of pig skin epidermis; assay: CRABP-2 assay; assay type: cell-based; details: topical dose 5 μl in ethanol vehicle, four days, control as 100%
Text: Within the cells, retinol and retinoic acid are bound to specific cellular binding proteins. Two of the major proteins are CRABP-1 and CRABP-2 (Roos et al., Pharmacological reviews: 50, 315-333, 1998). These proteins regulate the intracellular concentration of retinoids by acting as either storage or shuttle proteins in retinoid metabolism. The levels of CRABP protein are regulated by the amount of retinoic acid within the cells. Higher cellular levels of retinoids increase the expression of CRABP-2. Therefore, the amount of this protein in the cells is a measure of the retinoid activity of the cells. Skin cells contain high levels of CRABP-2 both in the epidermis and the dermis. CRABP-2 response to retinoid administration in is used as a reproducible measure of retinoid bioactivity that predict human skin responses (Elder et al., J. Invest. Dermatol., 106: 517-521, 1996). Increase in CRABP-2 is also associated with increased epidermal differentiation, and dermal retinoid action. Therefore, in these studies we used CRABP-2 expression of pig skin epidermis as a measure of retinoid activity leading to increased epidermal differentiation (skin conditioning and dry skin benefit) and dermal collagen and extracellular matrix synthesis (antiaging, anti wrinkling benefits).
Pig skin was received, scrubbed with Vionex detergent, and dermatomed at a thickness of 0.058 cm and allowed to wash in preliminary medium on a shaker for an hour with three solution changes.
7 mm punches were taken and allowed to sit in final medium overnight. The next day, the medium was refreshed with final medium 1 mL per well. One day later, the plates received fresh final medium,and topically dosed with 5 μl of the active(s) in an ethanol vehicle.
After four days, the biopsies will be removed from the plates, washed with PBS in a concial tube, and frozen at −80° C. for future use.
After thawing, the epidermis was separated and boiled in urea and sample buffer, after which protein quantitation was possible.
16% 15 lane acrylamide gels were loaded ewith the appropriate samples and run until all the proteins were separated based upon their molecular weight.
The gels were transferred onto PVDF membranes at 25 constant Volts for 2.5 hours.
The membranes were blocked with 5% milk in TBST (Tween 0.05%) for one hour at room temperature.
Primary Ab exposure 1:1,000 in 1% milk TBS soln for one hour, followed by six washes with TBST over a period of one hour. […]
The bands in the film were quantified by densitometric scanning, the data from triplicate samples were calculated as % of control and expressed in the following tables as % increase over control (with control as 100%).

Compound: CCCCCCCCCCCCCCCC(=O)OC/C=C(C)/C=C/C=C(C)/C=C/C1=C(C)CCCC1(C)C [Retinyl Palmitate, reference compound]
- % over control (Procollagen I; Experiment 3, concentration 10^−7 M, not significant): 24 % over control
- % over control ([1]; concentration 10^−3 M): 444 % over control

Compound: CCCCCCCCCCC/C=C/CCCCC(=O)OC/C=C(C)/C=C/C=C(C)/C=C/C1=C(C)CCCC1(C)C [Retinyl petroselinate, Retinyl Petroselinate]
- % over control (Procollagen I; Experiment 1, concentration 10^−6 M, p < 0.05): 110 % over control
- % over control ([1]; concentration 10^−3 M): 522 % over control

Compound: CCCCC/C=C/CCCCCCCCCCC(=O)OC/C=C(C)/C=C/C=C(C)/C=C/C1=C(C)CCCC1(C)C [Retinyl cis-12-Octadecenoate, Retinyl-cis12-Octadecenoate]
- % over control (Procollagen I; Experiment 2, concentration 10^−6 M, p < 0.05): 28 % over control
- % over control ([1]; concentration 10^−4 M): 993 % over control

Compound: CCCCC/C=C/C/C=C/C/C=C/CCCCC(=O)OC/C=C(C)/C=C/C=C(C)/C=C/C1=C(C)CCCC1(C)C [Gamma-retinyl linolenate, Retinyl-cis-6,9,12-Octadecatrienoate]
- % over control (Procollagen I; Experiment 1, concentration 10^−5 M, p < 0.05): 225 % over control
- % over control ([1]; concentration 10^−4 M): 882 % over control
